Measured values from ChEMBL document CHEMBL5321279 (J Med Chem, 2023).
Active and inactive are the calls of the source. No cut-off for these calls is given here.

Key:
[1] = test system: SARS-CoV-2; assay: Antiviral activity against SARS-CoV-2 Delta (B.1.617.2) infected in human A549-hACE2-TMPRSS2 cells assessed as reduction in viral replication pre-incubated with compound followed by viral infection measured after 48 hrs by ELISA assay; type: functional, organism-based; details: Severe acute respiratory syndrome coronavirus 2, Delta (B.1.617.2)
[2] = test system: SARS-CoV-2; assay: Antiviral activity against SARS-CoV-2 WA1 infected in human A549-hACE2-TMPRSS2 cells assessed as reduction in viral replication pre-incubated with compound followed by viral infection measured after 72 hrs by ELISA assay; type: functional, organism-based; details: Severe acute respiratory syndrome coronavirus 2, WA1, A549-hACE2-TMPRSS2
[3] = Cytotoxicity against human MT4 cells assessed as reduction in cell growth measured after 5 days by CellTiter-Glo assay; type: toxicity, cell-based; details: MT4 cells, time 5 day
[4] = test system: SARS-CoV-2; assay: Antiviral activity against Nluc-fused SARS-CoV-2 infected in human A549-ACE2 cells assessed as reduction in cell viability incubated for 2 days by Nano-Glo reagent based analysis; type: functional, organism-based; details: Severe acute respiratory syndrome coronavirus 2, A549-ACE2, 48 h
[5] = Cytotoxicity against human A549-ACE2 cells assessed as reduction in cell growth measured after 48 hrs by CellTiter-Glo assay; type: toxicity, cell-based; details: for CC50 at 48 h: A549-ACE2 cells
[6] = test system: SARS-CoV-2; assay: Antiviral activity against […]-fused SARS-CoV-2 infected in human NHBE-T cells assessed as reduction in cell viability incubated for 1 day by Nano-Glo reagent based analysis; type: functional, organism-based; details: Severe acute respiratory syndrome coronavirus 2, NHBE-T, 24 h
[7] = test system: SARS-CoV-2; assay: Antiviral activity against SARS-CoV-2 Omicron BA.1 infected in human A549-hACE2-TMPRSS2 cells assessed as reduction in viral replication pre-incubated with compound followed by viral infection measured after 72 hrs by ELISA assay; type: functional, organism-based; details: Severe acute respiratory syndrome coronavirus 2, Omicron BA.1, A549-hACE2-TMPRSS2
[8] = test system: SARS-CoV-2; assay: Antiviral activity against SARS-CoV-2 Omicron BA.2 infected in human A549-hACE2-TMPRSS2 cells assessed as reduction in viral replication pre-incubated with compound followed by viral infection measured after 72 hrs by ELISA assay; type: functional, organism-based; details: Severe acute respiratory syndrome coronavirus 2, Omicron BA.2, A549-hACE2-TMPRSS2
[9] = test system: SARS-CoV-2; assay: Antiviral activity against SARS-CoV-2 Omicron BA.2.12.1 infected in human A549-hACE2-TMPRSS2 cells assessed as reduction in viral replication pre-incubated with compound followed by viral infection measured after 72 hrs by ELISA assay; type: functional, organism-based; details: Severe acute respiratory syndrome coronavirus 2, Omicron BA.2.12.1, A549-hACE2-TMPRSS2
[10] = test system: SARS-CoV-2; assay: Antiviral activity against SARS-CoV-2 Omicron BA.4 infected in human A549-hACE2-TMPRSS2 cells assessed as reduction in viral replication pre-incubated with compound followed by viral infection measured after 72 hrs by ELISA assay; type: functional, organism-based; details: Severe acute respiratory syndrome coronavirus 2, Omicron BA.4, A549-hACE2-TMPRSS2
[11] = test system: SARS-CoV-2; assay: Antiviral activity against SARS-CoV-2 Omicron BA.5 infected in human A549-hACE2-TMPRSS2 cells assessed as reduction in viral replication pre-incubated with compound followed by viral infection measured after 72 hrs by ELISA assay; type: functional, organism-based; details: Severe acute respiratory syndrome coronavirus 2, Omicron BA.5, A549-hACE2-TMPRSS2
[12] = test system: SARS-CoV-2; assay: Antiviral activity against SARS-CoV-2 Omicron BA.2.75 infected in human A549-hACE2-TMPRSS2 cells assessed as reduction in viral replication pre-incubated with compound followed by viral infection measured after 72 hrs by ELISA assay; type: functional, organism-based; details: Severe acute respiratory syndrome coronavirus 2, Omicron BA.2.75, A549-hACE2-TMPRSS2
[13] = test system: SARS-CoV-2; assay: Antiviral activity against SARS-CoV-2 Omicron BA.4.6 infected in human A549-hACE2-TMPRSS2 cells assessed as reduction in viral replication pre-incubated with compound followed by viral infection measured after 72 hrs by ELISA assay; type: functional, organism-based; details: Severe acute respiratory syndrome coronavirus 2, Omicron BA.4.6, A549-hACE2-TMPRSS2
[14] = test system: SARS-CoV-2; assay: Antiviral activity against SARS-CoV-2 Omicron BF.5 infected in human A549-hACE2-TMPRSS2 cells assessed as reduction in viral replication pre-incubated with compound followed by viral infection measured after 72 hrs by ELISA assay; type: functional, organism-based; details: Severe acute respiratory syndrome coronavirus 2, Omicron BF.5, A549-hACE2-TMPRSS2
[15] = test system: SARS-CoV-2; assay: Antiviral activity against SARS-CoV-2 Omicron XBB infected in human A549-hACE2-TMPRSS2 cells assessed as reduction in viral replication pre-incubated with compound followed by viral infection measured after 72 hrs by ELISA assay; type: functional, organism-based; details: Severe acute respiratory syndrome coronavirus 2, Omicron XBB
[16] = test system: SARS-CoV-2; assay: Antiviral activity against SARS-CoV-2 Omicron BQ1.1 infected in human A549-hACE2-TMPRSS2 cells assessed as reduction in viral replication pre-incubated with compound followed by viral infection measured after 72 hrs by ELISA assay; type: functional, organism-based; details: Severe acute respiratory syndrome coronavirus 2, Omicron BQ1.1, A549-hACE2-TMPRSS2
[17] = test system: SARS-CoV-2; assay: Antiviral activity against SARS-CoV-2 Omicron BA.1 infected in human A549-hACE2-TMPRSS2 cells assessed as fold reduction in viral replication pre-incubated with compound followed by viral infection measured after 72 hrs by ELISA assay relative to SARS-CoV-2 WA1; type: functional, Severe acute respiratory syndrome coronavirus 2
[18] = test system: SARS-CoV-2; assay: Antiviral activity against SARS-CoV-2 Omicron BA.2 infected in human A549-hACE2-TMPRSS2 cells assessed as fold reduction in viral replication pre-incubated with compound followed by viral infection measured after 72 hrs by ELISA assay relative to SARS-CoV-2 WA1; type: functional, Severe acute respiratory syndrome coronavirus 2
[19] = test system: SARS-CoV-2; assay: Antiviral activity against SARS-CoV-2 Omicron BQ1.1 infected in human A549-hACE2-TMPRSS2 cells assessed as fold reduction in viral replication pre-incubated with compound followed by viral infection measured after 72 hrs by ELISA assay relative to SARS-CoV-2 WA1; type: functional, Severe acute respiratory syndrome coronavirus 2
[20] = Thermodynamic aqueous solubility at pH 2 measured at 72 hrs by UPLC analysis; type: physicochemical; details: aqueous solution, read-out: Therm_solubility
[21] = test system: Huh-7; assay: Cytotoxicity against human Huh-7 cells assessed as reduction in cell growth measured after 5 days by CellTiter-Glo assay; type: toxicity, cell-based; details: huh-7, 120 h, time 5 day
[22] = molecular target: T1, Adenosine deaminase (Homo sapiens) (UniProt P00813); assay: Inhibition of human recombinant ADA1-mediated drug metabolism at 100 uM incubated for 58 mins by absorbance based analysis
T1 sequence (whole entry): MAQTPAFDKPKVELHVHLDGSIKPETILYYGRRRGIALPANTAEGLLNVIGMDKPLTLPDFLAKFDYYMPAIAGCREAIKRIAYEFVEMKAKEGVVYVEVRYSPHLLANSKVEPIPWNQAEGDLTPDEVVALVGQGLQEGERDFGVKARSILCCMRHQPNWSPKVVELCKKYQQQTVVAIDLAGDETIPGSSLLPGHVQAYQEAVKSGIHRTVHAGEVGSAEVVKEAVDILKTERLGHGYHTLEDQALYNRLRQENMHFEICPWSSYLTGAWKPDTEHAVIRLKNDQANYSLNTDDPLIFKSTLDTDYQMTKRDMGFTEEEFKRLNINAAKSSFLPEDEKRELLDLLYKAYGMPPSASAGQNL

Structure (SMILES)	EC50 [1] [µM]	EC50 [2] [µM]	CC50 at 120 h [3] [µM]	EC50 [4] [µM]	EC50 [6] [µM]	EC50 [7] [µM]	EC50 [8] [µM]	EC50 [9] [µM]	EC50 [10] [µM]	EC50 [11] [µM]	EC50 [12] [µM]	EC50 [13] [µM]	EC50 [14] [µM]	EC50 [15] [µM]	EC50 [16] [µM]	fold change (FC) [17]	fold change (FC) [18]	fold change (FC) [19]	solubility thermodynamic at 72 h [20] [mg/mL]	CC50 [21] [µM]	also measured
CCC(CC)COC(=O)[C@H](C)N[P@](=O)(OC[C@H]1O[C@@](C#N)(c2ccc3c(N)ncnn23)[C@H](O)[C@@H]1O)Oc1ccccc1	0.07	0.08	1.7	0.06	0.04	0.04	0.02	0.03	0.02	0.11	0.03	0.09	0.13	0.09	0.09	0.45	0.23	1.12	–	–	CC50 ([5]; a549-ace2, 48 h): 22.9 µM
N#C[C@@]1(c2ccc3c(N)ncnn23)O[C@H](CO)[C@@H](O)[C@H]1O [GS-441524]	3.26	4.45	69	2.49	3.25	2.66	1.33	1.79	1.63	4.8	2.58	5.4	7.78	6.3	8.77	–	–	1.33	≤ 1	> 89	CC50 at 48 h [5]: > 50 µM; inhibition [22]: Active
CC(C)C(=O)OC[C@H]1O[C@@](C#N)(c2ccc3c(N)ncnn23)[C@H](O)[C@@H]1O [OBELDESIVIR]	0.74	1.01	> 50	1.9	0.43	0.65	0.71	0.44	0.4	1.3	0.69	2.45	3.13	2.03	2.44	0.32	0.37	1.33	≥ 40	> 44	CC50 at 48 h [5]: > 50 µM; inhibition [22]: Active
